We go through one molecule from ChEMBL document CHEMBL5247652, “Discovery of Novel Substrate-Competitive Lysine Methyltransferase G9a Inhibitors as Anticancer Agents” (J Med Chem, 2023).

The source made the active and inactive calls. The calls are words filed in the database; no cut-off is given here.

Series [1] deals with T1, Histone-lysine N-methyltransferase EHMT1 (Homo sapiens, UniProt Q9H9B1).
T1 sequence (Q9H9B1 whole entry): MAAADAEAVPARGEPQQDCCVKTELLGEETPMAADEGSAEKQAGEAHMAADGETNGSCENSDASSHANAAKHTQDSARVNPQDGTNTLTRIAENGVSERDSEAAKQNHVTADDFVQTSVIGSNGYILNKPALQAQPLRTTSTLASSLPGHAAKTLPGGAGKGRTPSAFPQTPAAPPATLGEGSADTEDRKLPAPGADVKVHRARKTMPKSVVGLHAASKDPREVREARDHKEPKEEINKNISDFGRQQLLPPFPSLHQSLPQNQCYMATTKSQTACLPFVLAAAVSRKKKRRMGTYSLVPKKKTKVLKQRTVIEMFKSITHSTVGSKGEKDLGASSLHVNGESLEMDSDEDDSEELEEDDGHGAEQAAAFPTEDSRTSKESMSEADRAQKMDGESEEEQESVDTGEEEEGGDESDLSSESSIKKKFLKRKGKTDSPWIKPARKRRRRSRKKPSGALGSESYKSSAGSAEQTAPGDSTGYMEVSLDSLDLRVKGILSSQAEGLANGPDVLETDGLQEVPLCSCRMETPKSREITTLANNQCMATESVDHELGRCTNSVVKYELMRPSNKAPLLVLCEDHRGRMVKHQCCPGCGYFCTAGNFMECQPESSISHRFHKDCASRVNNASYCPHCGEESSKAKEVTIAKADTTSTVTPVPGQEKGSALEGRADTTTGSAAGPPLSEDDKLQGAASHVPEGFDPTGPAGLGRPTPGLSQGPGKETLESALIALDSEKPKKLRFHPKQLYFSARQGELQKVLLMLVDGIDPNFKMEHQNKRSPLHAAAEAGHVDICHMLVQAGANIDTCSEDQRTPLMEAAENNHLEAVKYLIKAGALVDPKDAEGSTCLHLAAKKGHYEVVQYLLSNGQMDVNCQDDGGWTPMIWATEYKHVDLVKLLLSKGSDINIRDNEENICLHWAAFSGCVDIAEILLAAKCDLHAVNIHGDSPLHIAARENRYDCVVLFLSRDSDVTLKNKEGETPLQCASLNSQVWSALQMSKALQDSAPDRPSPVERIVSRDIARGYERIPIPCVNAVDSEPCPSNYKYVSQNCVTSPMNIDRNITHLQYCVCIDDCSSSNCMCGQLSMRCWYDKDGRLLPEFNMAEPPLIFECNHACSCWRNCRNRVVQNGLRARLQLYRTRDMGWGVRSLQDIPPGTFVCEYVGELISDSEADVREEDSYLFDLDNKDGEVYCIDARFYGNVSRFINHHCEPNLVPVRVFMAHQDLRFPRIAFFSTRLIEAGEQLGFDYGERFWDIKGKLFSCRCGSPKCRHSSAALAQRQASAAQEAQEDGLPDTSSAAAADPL
Kind of series: Inhibition of GLP (unknown origin).

Series [2] has as its system MOLT-4. Briefly: Downregulation of H3K9 dimethylation in human MOLT-4 cells at 1 uM by Western blot analysis. The class given is functional, cell-based.
Series [3] is described as follows: Drug concentration in C57BL/6 mouse liver at 50 mg/kg, ip measured after 4 hrs. It counts as ADME, organism-based. Conditions: read-out: Ct.
The nature of series [4]: Half life in ICR mouse at 25 mg/kg, ip. It counts as ADME, organism-based. The following applies: in vivo.
Series [5] addresses T2, Histone-lysine N-methyltransferase EHMT2 (Homo sapiens, UniProt Q96KQ7).
T2 sequence (Q96KQ7 whole entry): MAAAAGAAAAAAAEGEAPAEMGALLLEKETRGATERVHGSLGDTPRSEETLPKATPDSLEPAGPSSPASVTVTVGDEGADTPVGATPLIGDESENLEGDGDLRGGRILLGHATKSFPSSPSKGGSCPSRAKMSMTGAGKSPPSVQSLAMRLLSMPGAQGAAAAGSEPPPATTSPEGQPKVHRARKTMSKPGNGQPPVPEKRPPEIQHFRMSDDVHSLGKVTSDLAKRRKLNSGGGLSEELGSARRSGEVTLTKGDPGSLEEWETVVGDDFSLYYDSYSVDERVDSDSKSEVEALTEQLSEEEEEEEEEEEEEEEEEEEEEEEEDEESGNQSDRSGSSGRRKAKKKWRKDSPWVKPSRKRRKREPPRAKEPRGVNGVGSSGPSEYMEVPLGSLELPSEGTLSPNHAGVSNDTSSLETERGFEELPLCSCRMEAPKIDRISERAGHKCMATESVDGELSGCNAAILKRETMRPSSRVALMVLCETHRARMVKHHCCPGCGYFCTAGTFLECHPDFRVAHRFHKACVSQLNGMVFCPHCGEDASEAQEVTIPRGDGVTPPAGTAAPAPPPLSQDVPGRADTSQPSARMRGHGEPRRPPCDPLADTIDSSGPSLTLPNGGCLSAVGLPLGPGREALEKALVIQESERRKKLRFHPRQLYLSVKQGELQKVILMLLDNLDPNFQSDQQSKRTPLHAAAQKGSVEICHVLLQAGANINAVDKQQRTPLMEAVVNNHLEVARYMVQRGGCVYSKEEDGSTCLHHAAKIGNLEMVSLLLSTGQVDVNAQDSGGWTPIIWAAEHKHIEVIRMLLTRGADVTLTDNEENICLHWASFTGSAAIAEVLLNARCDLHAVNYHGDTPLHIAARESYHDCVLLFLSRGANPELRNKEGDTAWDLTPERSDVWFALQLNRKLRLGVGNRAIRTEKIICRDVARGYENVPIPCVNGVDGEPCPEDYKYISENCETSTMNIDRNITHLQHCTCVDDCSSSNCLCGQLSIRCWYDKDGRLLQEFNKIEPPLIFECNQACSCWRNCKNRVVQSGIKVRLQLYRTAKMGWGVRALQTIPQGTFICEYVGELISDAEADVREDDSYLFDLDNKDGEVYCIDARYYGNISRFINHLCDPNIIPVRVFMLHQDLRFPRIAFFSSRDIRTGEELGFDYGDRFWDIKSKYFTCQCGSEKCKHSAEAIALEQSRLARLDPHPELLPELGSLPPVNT
Kind of series: Inhibition of G9a (unknown origin).

Series [6] has as its system Mus musculus. Briefly: In vivo inhibition of G9a in C57BL/6 mouse liver assessed as H3 histone methylation at 20 to 50 mg/kg, ip measured after 5 days by Westernblot analysis. It counts as functional, organism-based. The following applies: dose 20-50 mg/kg, time 5.0 day.
A further series relates to HCC. Briefly: Antitumor activity against DEN-induced […] HCC tumor in C57BL/6 mouse at 20 to 50 mg/kg, ip measured after 48 weeks. The class given is functional, organism-based. The following applies: dose 20-50 mg/kg.
The nature of series [7]: Drug concentration in C57BL/6 mouse liver at 20 mg/kg, ip measured after 4 hrs. It counts as ADME, organism-based. Conditions: read-out: Ct.
A short description of series [8]: Toxicity in C57BL/6 mouse assessed as body weight loss at 20 to 50 mg/kg, ip measured after 48 weeks. Conditions: in vivo, 8064 h, dose 20-50 mg/kg. The class given is organism-based.
Series [9] can be described thus: Tmax in ICR mouse at 25 mg/kg, ip. The class given is ADME, organism-based. Conditions: in vivo.
A short description of series [10]: Drug concentration in C57BL/6 mouse plasma at 20 mg/kg, ip measured after 4 hrs. It counts as ADME, organism-based.
A short description of series [11]: Drug concentration in C57BL/6 mouse plasma at 50 mg/kg, ip measured after 4 hrs. It counts as ADME, organism-based.
Series [12] can be described thus: Cmax in ICR mouse at 25 mg/kg, ip. Conditions: in vivo. The class given is ADME, organism-based. Also noted: dose 25 mg/kg, route ip.
A short description of series [13]: AUC (0 to infinity) in ICR mouse at 25 mg/kg, ip. The class given is ADME, organism-based. Also noted: dose 25 mg/kg, route ip. The following applies: in vivo.
In series [14] the test system is Mus musculus. Briefly: In vivo inhibition of G9a in C57BL/6 mouse liver assessed as reduction in H3K9me2 level at 20 to 50 mg/kg, ip measured after 5 days by Westernblot analysis. It counts as functional, organism-based. The following applies: dose 20-50 mg/kg, time 5.0 day.
Series [15] relates to MOLT-4. Kind of series: Antiproliferative activity against human MOLT-4 cells assessed as inhibition of cell growth with replenishment of medium with compound on day 4 and 7 and measured after 12 days by ATPlite assay. It counts as functional. The following applies: MOLT-4, 288 h, time 12 day.

On to `Cc1c(C(=O)N[C@H](CCC2CC2)C(=O)Nc2ccc(C#N)cc2)[nH]c2c1C(=O)CC(C)(C)C2`, for which the results for the IC50 in [1] and in series [5] were 0.053 µM and 0.027 µM, respectively. In the series with MOLT-4 [2], the outcome was inactive. The concentration at 4 h in [3] stood at 46.9 µM; in [7], 23.5 µM; in [10], 9.6 µM; in [11], 18.9 µM. Also, in [4], the half-life (in general, the time in which the quantity being followed falls by half) is 1.4 h. In addition, in the series on Mus musculus [6], the inhibition result was “inactive”. In addition, the outcome in the series with HCC and in the series with Mus musculus [14] was Active. The Activity entry in series [8] is on record as “Non-Toxic”. Besides, the Tmax – broadly, the time at which the peak concentration occurs – in series [9] is 4 h. Moreover, the peak level in series [12] (Cmax) was 42.4 µM. Further, the total exposure AUC(0-inf) (in general, the area under the concentration-time curve extrapolated to infinity) in series [13] amounted to 418 µM·h. For the same molecule, the concentration for 50% growth inhibition (GI50) (as a rule, the concentration that inhibits growth by half) in the series with MOLT-4 [15] was determined as 2.37 µM.
